# ChEMBL document CHEMBL1144155, “Synthesis of 3-alkyl naphthalenes as novel estrogen receptor ligands” (Bioorg Med Chem Lett, 2008)
# pKi: −log10 of the molar value.
# How the values were obtained:
# Estrogen receptor = target: T1, Estrogen receptor (Homo sapiens, UniProt P03372)
# T1 sequence (P03372 whole entry): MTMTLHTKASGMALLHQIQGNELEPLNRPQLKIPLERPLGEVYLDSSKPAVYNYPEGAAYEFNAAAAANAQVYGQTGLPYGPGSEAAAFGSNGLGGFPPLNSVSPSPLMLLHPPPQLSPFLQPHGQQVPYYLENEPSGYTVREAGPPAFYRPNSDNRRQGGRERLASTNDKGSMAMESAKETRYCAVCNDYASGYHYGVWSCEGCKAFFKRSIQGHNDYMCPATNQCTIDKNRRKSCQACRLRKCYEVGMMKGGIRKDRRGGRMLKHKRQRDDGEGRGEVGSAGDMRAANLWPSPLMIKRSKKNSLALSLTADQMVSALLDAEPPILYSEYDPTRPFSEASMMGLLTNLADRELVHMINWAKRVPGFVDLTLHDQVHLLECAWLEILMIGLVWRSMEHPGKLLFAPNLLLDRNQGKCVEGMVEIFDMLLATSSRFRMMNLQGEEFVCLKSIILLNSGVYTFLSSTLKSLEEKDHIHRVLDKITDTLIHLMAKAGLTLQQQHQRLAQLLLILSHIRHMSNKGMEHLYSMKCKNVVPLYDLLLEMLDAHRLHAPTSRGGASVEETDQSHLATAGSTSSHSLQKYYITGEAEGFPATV
# Estrogen receptor beta = Estrogen receptor beta (Homo sapiens, UniProt Q92731)
# Estrogen receptor beta, sequence (Q92731 whole entry): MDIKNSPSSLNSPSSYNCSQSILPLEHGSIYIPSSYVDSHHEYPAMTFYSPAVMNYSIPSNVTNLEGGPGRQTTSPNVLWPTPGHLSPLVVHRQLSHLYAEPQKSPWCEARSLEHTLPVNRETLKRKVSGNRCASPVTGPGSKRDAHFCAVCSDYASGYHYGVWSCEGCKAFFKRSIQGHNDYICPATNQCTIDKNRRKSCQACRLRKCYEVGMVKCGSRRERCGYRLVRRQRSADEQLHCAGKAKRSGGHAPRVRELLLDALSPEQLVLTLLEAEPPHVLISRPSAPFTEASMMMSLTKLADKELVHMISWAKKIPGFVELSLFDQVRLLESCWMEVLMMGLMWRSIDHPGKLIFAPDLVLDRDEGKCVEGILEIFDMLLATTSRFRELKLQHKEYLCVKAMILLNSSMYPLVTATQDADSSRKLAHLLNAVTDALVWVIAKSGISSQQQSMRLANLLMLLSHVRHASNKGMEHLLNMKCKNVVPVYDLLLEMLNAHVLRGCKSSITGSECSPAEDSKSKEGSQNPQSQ
Compound,pKi (Estrogen receptor),pKi (Estrogen receptor beta)
CCCCCc1cc2cc(O)ccc2c(Oc2ccc(/C=C/C(=O)O)cc2)c1-c1ccccc1,8.70,8.52
CCCCc1cc2cc(O)ccc2c(Oc2ccc(/C=C/C(=O)O)cc2)c1-c1ccccc1,8.40,8.40
CCCCc1cc2ccccc2c(Oc2ccc(/C=C/C(=O)O)cc2)c1-c1ccccc1,6.01,6.77
CCCCCCCCc1cc2cc(O)ccc2c(Oc2ccc(/C=C/C(=O)O)cc2)c1-c1ccccc1,7.26,7.52
CCCCc1cc2ccccc2c(Oc2ccc(/C=C/C(=O)O)cc2)c1-c1ccc(OC)cc1,6.80,6.79
O=C(O)/C=C/c1ccc(Oc2c(-c3ccccc3)c(C3CC3)cc3cc(O)ccc23)cc1,7.22,7.80
CCCCc1cc2ccccc2c(Oc2ccc(/C=C/C(=O)O)cc2)c1-c1ccc(F)cc1,6.14,6.96
CC(C)Cc1cc2cc(O)ccc2c(Oc2ccc(/C=C/C(=O)O)cc2)c1-c1ccccc1,7.55,7.66
CCCCc1cc2ccccc2c(Oc2ccc(/C=C/C(=O)O)cc2)c1-c1ccc(O)cc1,7.28,7.32
COCc1cc2ccccc2c(Oc2ccc(/C=C/C(=O)O)cc2)c1-c1ccccc1,6.16,6.30
